Structures can show the parent of a compound that is named as a salt.
Assays:
SK-MEL-28 cells = assay: Cytotoxicity in low glucose condition (MTT assay); assay type: cell-based; conditions: Homo sapiens, SK-MEL-28, 72 h, 0.75 mM glucose, 72 hours treatment, read-out: SK-MEL-280.75 mM glucose cell viability (IC50 μM)
Excerpt: Cytotoxicity Assay in Low Glucose Condition
The inhibition of oxidative phosphorylation (OXPHOS) is not cytotoxic to cells in normal glucose condition, because it is postulated that normal cells have compensatory mechanism under energy stress conditions such as low glucose. However OXPHOS inhibitors show cytotoxic effect on cells in the glucose deprived condition (BirsoyK, 2014). The glucose deprived condition is observed in tumor microenvironment potentially due to poor angiogenesis. Therefore the OXPHOS inhibitors may show anti-cancer effect on cancer cells in low glucose condition that may depict tumor microenvironment.
The compounds of the present invention were evaluated their cytotoxicity in SK-MEL-28, melanoma with 0.75 mM glucose supplement. The cytotoxic effect is compared with the cytotoxicity caused by phenformin. The cytotoxicity in low glucose condition is correlated with inhibition of oxygen consumption in mitochondria.
SK-MEL-28 (HTB-72) is a melanoma cell line obtained from ATCC (MA) and cultured in RPMI 1640 media (Lifetechnologies, CA) with supplement of 10% FBS and antibiotic-antimycotic (Lifetechnologies, CA). RPMI 1640 (−Glucose) was used to prepare low glucose media and 0.75 mM glucose was supplied with D-(+)-glucose solution from Sigma. SK-MEL-28 cells were separated from culture plate using 0.5% trypsin-EDTA and 1,250 cells were plated in 96-well plate with low glucose media. After incubation at 37° C. for 24 hour, 5% CO2, the cells were treated with the compounds of present invention in FBS-free media for 72 hours. The cytotoxicity was measured by the MTT (AMRESCO, OH) assay. NADH-dependent cellular oxidoreductase reduces MTT to its insoluble […] with purple color. The enzyme depends on cell number or energy state of cells. 10 μl of 5 mg/ml MTT solution was added to each well of the assay plate and skip the well for blank. The plate was incubated at 37° C. and 5% CO2 for 2 hours. The MTT solution was removed from each well and 100 μl of DMSO was added. The plate was read by VICTOR X3 Multilabel Counter at the wavelength of 550 nm. In Table 2, the levels of IC50 are evaluated by the following criteria.
According to the concentration of compound for killing the half of cell populations (the levels of IC50), the compounds were classified into A, B and C, when the compounds were treated on SK-MEL-28 cells at 0.75 mM glucose.

A549 cells = assay: Test for inhibition of OCR and enhancement of ECAR (XF Analyzer); assay type: cell-based; conditions: Homo sapiens, 24 hrs treatment, oxygen consumption rate
Excerpt: Measurement of Mitochondrial Complex I Inhibition
The electron transfer complex in mitochondria is composed of 5 complexes. The complex I accept electrons from NADH produced from glycolysis and TCA cycle and the electrons move to complex […] and the electron is finally transferred to O2 and water molecule is generated. During the electron transfer, proton gradient is generated and the chemical gradient is a driving source to synthesize ATP at complex V. The mitochondrial inhibition of complex I indirectly assessed by measuring the oxygen consumption rate (OCR) at complex IV. […] The solution outside of cells becomes acidic (lower pH) as lactate is transported to outside of cells. OCR and Extracellular acidification rate (ECAR) are determined by XF Analyzer (Seahorse Biosciences).
A549 cells were purchased from American Type Tissue Culture Collection (CCL-185™) and cultured in RPMI 1640 supplied with 10% fetal bovine serum (FBS) and antibiotic-antimycotic (Lifetech, CA). A549 cells were separated with 0.5% Trypsin-EDTA and 3,000 cells were plated on 1 mg/ml poly-D-lysine (Sigma, P6407) coated XF 96 well […]. A549 cells were allowed to adhere to the wells for 24 hours under the condition of temperature, 37° C. and 5% CO2. The sensor cartridge of XF Analyzer was soaked in 200 μl of Calibrant solution (Seahorse, MA) in a clear 96-well plate at 37° C. for 24 hours. The compounds of the present invention were diluted with RPMI 1640 without FBS, transferred to A549 cells on XF 96 well plate, and incubated further for 23 hours at 37° C. and 5% CO2. After incubation, the compound solution was exchanged with pre-warmed and pH adjusted (pH7.4) XF assay media (Seahorse) supplied with 15 mM D-glucose (Sigma), 15 mM sodium pyruvate (Lifetechnologies, CA) and 4 mM L-glutamine (Lifetechnologies, CA). The compounds of present invention were prepared in XF Assay media and added to the assay plate. The assay plate was equilibrated in XF Analyzer for 1 hour, and the reading were started by sensor cartridge. The cytotoxicity assay was followed using Cyquant (Lifetechnologies, CA) in order to calibrate the inhibition with cytotoxicity of compounds. The concentrations of the compounds were tested at 0, 0.5, 1, 5, 10 and 20 μM and IC50 value was obtained from the inhibited values. That is, from OCR inhibition values at each concentration of the compound, IC50 was calculated according to Prism's dose response curve fitting.
In Table 1, the levels of OCR IC50 are evaluated by the following.
According to the test results of the compounds, the compounds were classified into A, B and C.

For `N=C(NC(=N)N1CCC(F)(F)CC1)Nc1ccccc1` [Example 1, N—(N-phenylcarbamimidoyl)-4,4-difluoropiperidine-1-carboximidamide hydrochloride], which IC50 (SK-MEL-28 cells) is on record?
Its IC50 is over 15 µM.

With `N=C(NC(=N)N1CCC(F)(F)CC1)Nc1ccc2c(c1)CCCC2` [Example 2, N—(N-(5,6,7,8-teterhydronaphthalene-2-yl)carbamimidoyl)-4,4-difluoro piperidine-1-carboximidamide hydrochloride] as the compound, how does the IC50 (A549 cells) read?
The IC50 was over 4 µM.

And the IC50 (SK-MEL-28 cells)?
The IC50 was 6 to 15 µM.

Which results are given for `N=C(NC(=N)N1CCC(F)(F)CC1)Nc1ccc(Cl)c(Cl)c1` [Example 3, N—(N-(3,4-dichlorophenyl)carbamimidoyl)-4,4-difluoropiperidine-1-carboximidamide hydrochloride]?
IC50 (A549 cells): > 4 µM; IC50 (SK-MEL-28 cells): < 6 µM

How did the IC50 (SK-MEL-28 cells) turn out when `N=C(NC(=N)N1CCC(F)(F)CC1)Nc1ccccc1Br` [Example 4, N—(N-(2-bromophenyl)carbamimidoyl)-4,4-difluoropiperidine-1-carboximidamide hydrochloride] was run?
Its IC50 is over 15 µM.

How did the IC50 (A549 cells) turn out when `N=C(NC(=N)N1CCC(F)(F)CC1)Nc1cccc(Br)c1` [Example 5, N—(N-(3-bromophenyl)carbamimidoyl)-4,4-difluoropiperidine-1-carboximidamide hydrochloride] was run?
The IC50 was over 4 µM.

And the IC50 (SK-MEL-28 cells)?
The IC50 was 6 to 15 µM.

Which results are given for `N=C(NC(=N)N1CCC(F)(F)CC1)Nc1ccc(Br)cc1` [Example 6, N—(N-(4-bromophenyl)carbamimidoyl)-4,4-difluoropiperidine-1-carboximidamide hydrochloride]?
IC50 (A549 cells): > 4 µM; IC50 (SK-MEL-28 cells): 6 to 15 µM

With `CSc1ccc(NC(=N)NC(=N)N2CCC(F)(F)CC2)cc1` [Example 8, N—(N-(4-(methythio)phenyl)carbamimidoyl)-4,4-difluoropiperidine-1-carboximidamide hydrochloride] as the compound, how does the IC50 (A549 cells) read?
Its IC50 is over 4 µM.

What about the IC50 (SK-MEL-28 cells) of the same compound?
Its IC50 is 6 to 15 µM.

For `N=C(NC(=N)N1CCC(F)(F)CC1)Nc1ccc(SC(F)(F)F)cc1` [Example 9, N—(N-(4-(trifluoromethythio)phenyl)carbamimidoyl)-4,4-difluoro piperidine-1-carboximidamide hydrochloride], which IC50 (A549 cells) is on record?
The IC50 was 2 to 4 µM.

And the IC50 (SK-MEL-28 cells)?
Its IC50 is under 6 µM.

For `CC(C)c1ccc(NC(=N)NC(=N)N2CCC(F)(F)CC2)cc1` [Example 10, N—(N-(4-isopropylphenyl)carbamimidoyl)-4,4-difluoropiperidine-1-carboximidamide hydrochloride], which IC50 (A549 cells) is on record?
The IC50 was over 4 µM.

What about the IC50 (SK-MEL-28 cells) of the same compound?
The IC50 was 6 to 15 µM.

Which IC50 (A549 cells) does the source give for `N=C(NC(=N)N1CCC(F)(F)CC1)Nc1ccc(F)c(Cl)c1` [Example 11, N—(N-(3-chloro-4-fluorophenyl)carbamimidoyl)-4,4-difluoropiperidine-1-carboximidamide hydrochloride] here?
The IC50 was over 4 µM.

And the IC50 (SK-MEL-28 cells)?
Its IC50 is 6 to 15 µM.

How did the IC50 (A549 cells) turn out when `N=C(NC(=N)N1CCC(F)(F)CC1)Nc1cccc(Oc2ccccc2)c1` [Example 13, N—(N-(3-phenoxyphenyl)carbamimidoyl)-4,4-difluoropiperidine-1-carboximidamide hydrochloride] was run?
The IC50 was 2 to 4 µM.

And the IC50 (SK-MEL-28 cells)?
The IC50 was under 6 µM.

Which results are given for `N=C(NC(=N)N1CCSC1)Nc1ccc(SC(F)(F)F)cc1` [Example 14, N—(N-(4-(trifluoromethythio)phenyl)carbamimidoyl)thiazolidine-3-carboximidamide hydrochloride]?
IC50 (A549 cells): 2 to 4 µM; IC50 (SK-MEL-28 cells): < 6 µM

With `N=C(NC(=N)N1CCC(F)(F)CC1)Nc1ccc(OC(F)(F)F)cc1` [Example 17, N—(N-(4-(trifluoromethoxy)phenyl)carbamimidoyl)-4,4-difluoropiperidine-1-carboximidamide acetate] as the compound, how does the IC50 (A549 cells) read?
The IC50 was 2 to 4 µM.

Which IC50 (A549 cells) does the source give for `N=C(NC(=N)N1CCC(F)(F)CC1)Nc1ccc(I)c(Cl)c1` [Example 18, N—(N-(3-chloro-4-iodophenyl)carbamimidoyl)-4,4-difluoropiperidine-1-carboximidamide acetate] here?
The IC50 was 2 to 4 µM.

For `N=C(NC(=N)N1CCC(F)(F)CC1)Nc1ccc(C(F)(F)F)cc1` [Example 21, N—(N-(4-(trifluoromethyl)phenyl)carbamimidoyl)-4,4-difluoropiperidine-1-carboximidamide acetate], which IC50 (A549 cells) is on record?
The IC50 was 2 to 4 µM.

And the IC50 (SK-MEL-28 cells)?
Its IC50 is under 6 µM.

With `N=C(NC(=N)N1CCC(F)(F)CC1)Nc1ccc(I)c(Br)c1` [Example 22, N—(N-(3-bromo-4-iodophenyl)carbamimidoyl)-4,4-difluoropiperidine-1-carboximidamide acetate] as the compound, how does the IC50 (A549 cells) read?
The IC50 was 2 to 4 µM.

What about the IC50 (SK-MEL-28 cells) of the same compound?
Its IC50 is under 6 µM.

Which IC50 (A549 cells) does the source give for `N=C(NC(=N)N1CCC(F)(F)CC1)Nc1ccc(Oc2ccccc2)cc1` [Example 23, N—(N-(4-phenoxyphenyl)carbamimidoyl)-4,4-difluoropiperidine-1-carboximidamide acetate] here?
The IC50 was 2 to 4 µM.

And the IC50 (SK-MEL-28 cells)?
The IC50 was under 6 µM.

Which IC50 (A549 cells) does the source give for `N=C(NC(=N)N1CCC(F)(F)C1)Nc1ccc(OC(F)(F)F)cc1` [Example 25, N—(N-(4-(trifluoromethoxy)phenyl)carbamimidoyl)-3,3-difluoropyrrolidine-1-carboximidamide acetate] here?
Its IC50 is 2 to 4 µM.

And the IC50 (SK-MEL-28 cells)?
Its IC50 is under 6 µM.

With `N=C(NC(=N)N1CCC(F)(F)CC1)Nc1ccc(Br)c(Br)c1` [Example 26, N—(N-(3,4-dibromophenyl)carbamimidoyl)-4,4-difluoropiperidine-1-carboximidamide acetate] as the compound, how does the IC50 (A549 cells) read?
The IC50 was 2 to 4 µM.

What about the IC50 (SK-MEL-28 cells) of the same compound?
The IC50 was 6 to 15 µM.

What does the source list for `N=C(NC(=N)N1CCC(F)(F)CC1)Nc1ccc(OC(F)(F)F)c(F)c1` [Example 27, N—(N-(3-fluoro-4-(trifluoromethoxy)phenyl)carbamimidoyl)-4,4-fluoropiperidine-1-carboximidamide acetate]?
IC50 (A549 cells): < 2 µM; IC50 (SK-MEL-28 cells): < 6 µM

Which results are given for `N=C(NC(=N)N1CCC(F)(F)C1)Nc1ccc(Oc2ccccc2)cc1` [Example 28, N—(N-(4-phenoxyphenyl)carbamimidoyl)-3,3-difluoropyrrolidine-1-carboximidamide acetate]?
IC50 (A549 cells): 2 to 4 µM; IC50 (SK-MEL-28 cells): < 6 µM

With `N=C(NC(=N)N1CCC(F)(F)C1)Nc1cccc(Oc2ccccc2)c1` [Example 29, N—(N-(3-phenoxyphenyl)carbamimidoyl)-3,3-difluoropyrrolidine-1-carboximidamide acetate] as the compound, how does the IC50 (A549 cells) read?
The IC50 was under 2 µM.

And the IC50 (SK-MEL-28 cells)?
Its IC50 is under 6 µM.

With `N=C(NC(=N)N1CCC(F)(F)C1)Nc1ccc(OC(F)(F)F)c(Br)c1` [Example 39, N—(N-(3-bromo-4-(trifluoromethoxy)phenyl)carbamimidoyl)-3,3-difluoropyrrolidine-1-carboximidamide acetate] as the compound, how does the IC50 (A549 cells) read?
Its IC50 is 2 to 4 µM.

How did the IC50 (A549 cells) turn out when `N=C(NCc1ccccc1Br)NC(=N)N1CCC(F)(F)CC1` [Example 40, N—(N-(2-bromobenzyl)carbamimidoyl)-4,4-difluoropiperidine-1-carboximidamide hydrochloride] was run?
Its IC50 is over 4 µM.

With `N=C(NCc1ccc(Br)cc1)NC(=N)N1CCC(F)(F)CC1` [Example 55, N—(N-(4-bromobenzyl)carbamimidoyl)-4,4-difluoropiperidine-1-carboximidamide acetate] as the compound, how does the IC50 (A549 cells) read?
The IC50 was over 4 µM.

From patent publication US10590081B2, “Guanidine compounds and use thereof” (ImmunoMet Therapeutics Inc., priority 2015, dated 2020)
